The test system of series [1] is hamster cheek pouch arterioles. The experiment in a line: Vascular constriction in hamster cheek pouch arterioles. Also noted: species or system Golden hamster. How it is done:
Adenosine, inosine, cromolyn, compound 48/80, methylene blue, acetylcholine, and components for saline solutions used to bathe arterioles are obtained from Sigma. 8(p-sulphophenyl)theo-phylline was obtained from Research Biochemicals, Inc. (Natick, Mass.).
Arterioles (luminal diameter approximately 60 μm) are dissected from male Golden hamster cheek pouches, transferred to a 37° C. tissue chamber, and cannulated at both ends (see Duling et al., Am. J. Physiol., (241) (Heart Circ. Physiol., (10) pp. H108-H116 (1981); Duling et al., Microcirculatory Technology, edited by C. H. Baker and W. G. Nastuk, Orlando Academic Press, pp. 265-280 (1986)). Changes in luminal diameter in response to abluminal delivery of adenosine (10^-8 M to 10^-4 M) are measured using videotaped microscopic observation and video calipers with continuous output, to generate cumulative concentration-response curves.
Examination of the abluminal surface of the vessel after staining with methylene blue reveal large numbers of mast cells closely associated with the vessel wall.

Series [2] concerns the target T1, human A1 adenosine receptor (Homo sapiens, UniProt P30542).
T1 construct: expressed in transfected cells; host or cells: COS7 cells (transient transfection), membranes
T1 sequence (P30542 1-326): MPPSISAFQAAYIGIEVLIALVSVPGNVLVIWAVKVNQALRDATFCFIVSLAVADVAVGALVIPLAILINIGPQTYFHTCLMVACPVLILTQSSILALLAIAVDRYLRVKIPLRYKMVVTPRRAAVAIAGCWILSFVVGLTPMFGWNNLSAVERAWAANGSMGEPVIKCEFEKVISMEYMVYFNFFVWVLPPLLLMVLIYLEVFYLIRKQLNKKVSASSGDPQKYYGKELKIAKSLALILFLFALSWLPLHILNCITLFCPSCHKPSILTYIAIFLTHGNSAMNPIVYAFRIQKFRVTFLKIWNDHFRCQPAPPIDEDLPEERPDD
The experiment in a line: Radioligand binding assay, A1 receptor. As to conditions: [3H]-cyclohexyladenosine (CHA); membranes of transfected COS7 cells; read-out: IC50, inhibition of specific radioligand binding to A1 receptor. The source says:
(§1) The human A1, A2a, A2b and A3 receptor subtype cDNAs were subcloned into the expression vectors pSVL (Pharmacia, Columbus, Ohio), CMV5 (Mumby, et al., PNAS, (87) pp. 728-732 (1990)) pCDNA1 or pREP (Invitrogen). Transient expression in COS7 cells (monkey kidney cell line, ATCC CRL 1651, ATCC, Rockville, Md.) (Doyl et al. WO 95/11681) was accomplished by transfection of the cloned adenosine receptor cDNAs under the control of the SV40 promoter into mammalian cells, such as COS7. Membranes prepared from the transfected cells were utilized for the determination of binding affinity, selectivity and specificity of the human adenosine receptors for various ligands. […]
(§2) Membranes prepared from transfected COS7 cells were utilized in a binding assay to measure the affinity of agonists and antagonists on the human adenosine receptors. […] Bound radioactivity was measured by scintillation counting. Binding data were analyzed by the use on nonlinear regression curve fitting program Graph Pad InPlot, Version 3.0 (Graph Pad Software, San Diego). Ki values were calculated using the Cheng-Prusoff derivation (Cheng, Y. C. and Prusoff, H. R. (1973) Biochem. Pharmacol. 22, 3099-3108). […] Nonselective binding was determined with 1 μM I-ABA for A1 and A3 receptors and 10 μM NECA for A2a receptors. Activity on A2b receptor subtypes was measured in the cAMP accumulation assay described below. […]

Series [3] addresses T2, human A2a adenosine receptor (Homo sapiens, UniProt P29274).
T2 construct: expressed in transfected cells; host or cells: COS7 cells (transient transfection), membranes
In words: Radioligand binding assay, A2a receptor. As to conditions: [3H]-CGS21680; membranes of transfected COS7 cells; read-out: IC50, inhibition of specific radioligand binding to A2a receptor.
Source text: as §1, §2

The target of series [4] is T3, human A2b adenosine receptor (Homo sapiens, UniProt P29275).
T3 construct: cAMP accumulation induced by adenosine
T3 sequence (P29275 1-332): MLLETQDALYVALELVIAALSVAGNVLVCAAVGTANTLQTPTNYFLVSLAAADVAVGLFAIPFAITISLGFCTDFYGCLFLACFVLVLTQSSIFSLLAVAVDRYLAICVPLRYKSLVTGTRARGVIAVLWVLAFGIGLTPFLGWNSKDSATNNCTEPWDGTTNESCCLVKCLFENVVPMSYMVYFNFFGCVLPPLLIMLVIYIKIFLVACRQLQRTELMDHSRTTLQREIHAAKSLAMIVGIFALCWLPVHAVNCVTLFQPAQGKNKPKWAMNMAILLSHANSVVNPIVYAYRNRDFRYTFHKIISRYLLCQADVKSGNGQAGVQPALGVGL
The experiment in a line: cAMP accumulation via A2b receptors. Format: cell-based. As to conditions: at 10 μM; stably transfected CHO cells; adenosine (10 μM) induced. In general terms: Changes in cAMP serve as a functional read-out for many G protein-coupled receptors.

Series [5] has as its target T4, human A3 adenosine receptor (Homo sapiens, UniProt P0DMS8).
T4 construct: expressed in transfected cells
T4 sequence (P0DMS8 1-318): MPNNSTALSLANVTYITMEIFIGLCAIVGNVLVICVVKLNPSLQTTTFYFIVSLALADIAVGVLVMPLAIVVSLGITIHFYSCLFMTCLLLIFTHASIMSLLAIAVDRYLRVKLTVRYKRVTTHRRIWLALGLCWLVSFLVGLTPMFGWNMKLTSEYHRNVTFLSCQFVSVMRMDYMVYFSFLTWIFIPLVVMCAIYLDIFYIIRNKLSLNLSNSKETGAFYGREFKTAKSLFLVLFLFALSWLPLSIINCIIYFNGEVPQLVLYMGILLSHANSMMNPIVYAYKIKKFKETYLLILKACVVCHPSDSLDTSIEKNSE
The experiment in a line: Radioligand binding assay, A3 receptor. As to conditions: [3H]-NECA or [125I]-ABA; membranes of transfected COS7 cells; read-out: IC50, inhibition of specific radioligand binding to A3 receptor.
Description: Membranes prepared from transfected COS7 cells were utilized in a binding assay to measure the affinity of agonists and antagonists on the human adenosine receptors. […] Bound radioactivity was measured by scintillation counting. Binding data were analyzed by the use on nonlinear regression curve fitting program Graph Pad InPlot, Version 3.0 (Graph Pad Software, San Diego). […] The affinities of agonists and antagonists on human adenosine receptor subtypes were measured in competition binding assays using the radiolabeled adenosine agonists, [^3 H]-cyclo-hexyladenosine (CHA) for A1 receptors, [^3 H]-CGS21680 (2-(p-(2-carboxyethyl)-phenylamino)-5'-N-ethyl-carboxamidoadenosine) for A2a receptors and, [^3 H]-5'-N-ethylcarboxamido adenosine ([^3 H]-NECA), or [^125 I]-N^6 -aminobenzyl adenosine (^125 I-ABA) for A3 receptors. Nonselective binding was determined with 1 μM I-ABA for A1 and A3 receptors and 10 μM NECA for A2a receptors. […]

The target of series [6] is T4, human A3 adenosine receptor. In words: cAMP accumulation assay, A3 receptors stably expressed on CHO cells (FIG. 1). Format: cell-based.
Description: The changes in cAMP accumulation were measured in stably transfected CHO cells expressing the human adenosine receptor subtypes. CHO cells were washed twice in phosphate buffered saline (PBS) and detached in 0.2% EDTA in PBS. After pelleting at 800 rpm for 10 min, cells were resuspended in KRH buffer (140 mM NaCl/5 mM KCl/2 mM CaCl2 /1.2 mM MgSO4 /1.2 mM KH2 PO4 /6 mM glucose/25 mM Hepes buffer, pH 7.4), washed once in KRH buffer and resuspended at 10^7 cells/mL. The cell suspension (100 μL) was mixed with 100 μL of KRH buffer containing 200 μM of the phosphodiesterase inhibitor Ro 20-1724 and incubated at 37° C. for 15 minutes. Antagonists were preincubated for 10 minutes before adding 5 μM forskolin and 60 μM adenosine. After 10 minutes, 400 μL of 100 mM acetic acid was added and the sample was boiled for 5 minutes. The supernatant was recovered by centrifugation for 15 minutes and cAMP levels were determined by radioimmunoassay ([…] kit, DuPont/NEN) using the acetylation protocol.
The subject of series [7] is canine A3 adenosine receptors. The experiment in a line: Affinity for canine A3 adenosine receptors. The series is classed as binding.
The next series deals with myocardial infarct. In words: Reduction of myocardial infarct size in anesthetized dogs. The series is classed as in vivo, dog. How it is done:
The effect of antagonist compound IV, with high affinity for canine A3 adenosine receptors, on myocardial infarct size is compared to a vehicle-treated control group in barbital-anesthetized dogs subjected to 90 minutes of left anterior descending coronary artery occlusion followed by 3 hours of reperfilsion. Vehicle (5 μM NaOH in isotonic saline) or antagonist are infused at a rate of 1 ml/min directly into the left anterior descending coronary artery distal to the occlusion site beginning 10 minutes before occlusion and are continued throughout the entire ischemic period. The myocardial region at risk and infarct size are determined by the triphenyltetrazolium histochemical technique and regional myocardial blood flow by radioactive microspheres. Coronary sinus LDH activity and histamine concentrations were measured at various times throughout the experiments and myeloperoxidase activity was determined at the conclusion of the experiments as an index of neutrophil infiltration into the ischemic-reperfused mycocardium. Ten dogs were included in this preliminary study, 4 in the vehicle-treated group and 6 in the antagonist treated group.

The next series relates to asthmatics. As to conditions: asthmatics but not nonasthmatics; cited from earlier work.
The subject of series [8] is mast cells isolated from rat peritoneum. As to conditions: cited from earlier work.
The subject of series [9] is ischemic reperfused myocardium. As to conditions: in vivo; cited from earlier work.

Each structure is given as a SMILES string.

The IC50 is the point on the concentration scale where inhibition reaches its midpoint.

T2 sequence (P29274 whole entry): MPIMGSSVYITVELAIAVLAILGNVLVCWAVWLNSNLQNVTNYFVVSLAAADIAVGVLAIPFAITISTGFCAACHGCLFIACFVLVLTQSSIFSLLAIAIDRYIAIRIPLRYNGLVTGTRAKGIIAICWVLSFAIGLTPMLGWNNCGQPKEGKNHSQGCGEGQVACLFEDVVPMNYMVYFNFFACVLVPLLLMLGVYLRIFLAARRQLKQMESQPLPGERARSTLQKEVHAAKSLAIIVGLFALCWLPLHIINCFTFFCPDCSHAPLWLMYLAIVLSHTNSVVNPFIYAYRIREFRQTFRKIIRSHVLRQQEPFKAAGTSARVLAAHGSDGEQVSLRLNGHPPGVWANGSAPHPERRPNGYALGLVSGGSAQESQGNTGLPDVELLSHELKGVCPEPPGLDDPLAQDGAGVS

Consider `Cn1c(=O)c2[nH]c(-c3ccc(S(=O)(=O)O)cc3)nc2n(C)c1=O` [8(p-sulfophenyl) theophylline], for which, in series [1] (pretreatment 100 μM), the “effect on adenosine-induced constriction” value is recorded as “did not alter the constriction” and the “effect on adenosine-induced dilator responses” value is recorded as “inhibited the dilator responses”.
Regarding `COC(=O)C1=C2C=CN(C)C=C2c2nc(-c3ccccc3)nn2C1` [Compound IV], the IC50 in [2] turned out to be 5.3 µM. For the same compound, the IC50 in [3] was 27.5 µM. For the same compound, in series [4], the “IC50, cAMP accumulation via A2b receptors” value is “inactive”. Besides, the IC50 in [5] came out at 0.013 µM. Besides, the “effect on inhibition of cAMP accumulation resulting from adenosine activation of A3 receptors” value in series [6] (10 μM compound IV, forskolin induced cAMP) is listed as “prevents the inhibition of cAMP accumulation”. The “effect on basal cAMP levels” value in series [6] (basal) is given as “no effect”. Besides, the “effect on levels of cAMP accumulated with forskolin alone” value in series [6] (forskolin alone) was “no effect”. The “affinity for canine A3 adenosine receptors” value in series [7] is “high affinity”. In the series on myocardial infarct (90 min LAD occlusion, 3 h reperfusion, intracoronary infusion, vs vehicle), the myocardial infarct size entry is listed as “effectively reduces myocardial infarct size”. Further, the “hemodynamics and regional myocardial blood flow in non-ischemic left circumflex coronary artery region” value in the series on myocardial infarct (at baseline or during occlusion, between groups) is listed as “not different between groups”. In the series on myocardial infarct (between the two groups, end of experiment), the myeloperoxidase activity entry was “not different between the two groups”. The arrhythmias result with myocardial infarct (during occlusion and reperfusion, all animals) was “arrhythmias are encountered”. In addition, in the series on myocardial infarct (during reperfusion), the “coronary sinus LDH activity” value is listed as “reduced”, the “coronary sinus histamine concentrations” value was “reduced”, the dP/dt result is recorded as “significantly improved” and the “left anterior descending coronary artery blood flow” value was “significantly decreased”. Further, the “myeloperoxidase activity in infarcted tissue” value in the series on myocardial infarct (infarcted tissue, end of experiment) is recorded as “tendency for reduced activity”. For the same compound, the collateral blood flow entry in the series on myocardial infarct (ischemic-reperfused region, during occlusion, particularly subepicardial) is given as “slightly greater”. Moreover, the “ventricular fibrillation requiring cardioversion” value in the series with myocardial infarct (some dogs from each group) is “some dogs from each group progress to ventricular fibrillation requiring cardioversion”.
Regarding `Nc1ncnc2c1ncn2[C@@H]1O[C@H](CO)[C@@H](O)[C@H]1O` [adenosine], the “constrictor response of arterioles” value in series [1] (10^-6 M adenosine, abluminal) is reported as “elicited an intense, transient constriction”. In addition, the “dilator response of arterioles” value in series [1] (concentrations higher than 10^-6 M adenosine) is “induced dilator responses”. Moreover, the “mast cell degranulation on abluminal vessel surface” value in [1] (following exposure to adenosine, methylene blue staining) is listed as “mast cells are found to be degranulated”. Besides, the bronchoconstriction result in the series with asthmatics is recorded as “produce bronchoconstriction in asthmatics but not in nonasthmatics”. Also, the “release of granule contents from mast cells” value in series [8] is “potentiates the release of granule contents”.
Consider `N#Cc1cc(NC(=O)C(=O)O)c(Cl)c(NC(=O)C(=O)O)c1` [lodoxamide], for which, in [9], the myocardial ischemic injury entry is recorded as “reduces myocardial ischemic injury”.

These data come from patent publication US5780481A, “Method for inhibiting activation of the human A3 adenosine receptor to treat asthma” (Merck & Co., Inc., priority 1996, dated 1998).
